Experimental data: US6737383B1, “Herbicidal oxadiazolidines” (priority 1999, dated 2004)

Columns and labels:
[1] = system: soybean; assay: Test B pre/postemergence soybean; format: in vivo, Glycine max
In short: (§1)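 Response is a visual 0-to-10 score relative to untreated plants, where 0 means no effect and 10 means complete control, taken twelve to sixteen days after application. Treatments went onto soil at planting and onto foliage of 1- to 4-leaf plants, using a surfactant-containing non-phytotoxic solvent.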

[2] = system: rice; assay: Test B flood test rice; format: in vivo, Oryza sativa
In short: (§2)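 Flood test on plants grown to the 2-leaf stage; treated plants kept in greenhouse twelve to sixteen days, then visually rated against controls on a 0 (no effect) to 10 (complete control) scale.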

[3] = system: surinam grass; assay: Test B pre/postemergence surinam grass; format: in vivo, Brachiaria decumbens
In short: as §1

[4] = system: velvetleaf; assay: Test B pre/postemergence velvetleaf; format: in vivo, Abutilon theophrasti
In short: as §1

[5] = system: cocklebur; assay: Test B pre/postemergence cocklebur; format: in vivo, Xanthium strumarium
In short: as §1

[6] = system: giant foxtail; assay: Test B pre/postemergence giant foxtail; format: in vivo, Setaria faberii
In short: as §1

[7] = system: smallflower flatsedge; assay: Test B flood test smallflower flatsedge; format: in vivo, Cyperus difformis
In short: as §2

[8] = system: purple nutsedge; assay: Test B pre/postemergence purple nutsedge; format: in vivo, Cyperus rotundus
In short: as §1

[9] = system: wheat; assay: Test B pre/postemergence wheat; format: in vivo, Triticum aestivum
In short: as §1

[10] = system: sugar beet; assay: Test B pre/postemergence sugar beet; format: in vivo, Beta vulgaris
In short: as §1

[11] = system: crabgrass; assay: Test B pre/postemergence crabgrass; format: in vivo, Digitaria sanguinalis
In short: as §1

[12] = system: blackgrass; assay: Test B pre/postemergence blackgrass; format: in vivo, Alopecurus myosuroides
In short: as §1

[13] = system: bamyardgrass; assay: Test B flood test barnyardgrass; format: in vivo, Echinochloa crus-galli
In short: as §2

[14] = system: rape; assay: Test B pre/postemergence rape; format: in vivo, Brassica napus
In short: as §1

[15] = system: duck salad; assay: Test B flood test duck salad; format: in vivo, Heteranthera limosa
In short: as §2

[16] = system: corn; assay: Test B pre/postemergence corn; format: in vivo, Zea mays
In short: as §1

[17] = system: bedstraw; assay: Test B pre/postemergence bedstraw; format: in vivo, Galium aparine; details: Postemergence
In short: as §1

[18] = Postemergence, Rate 250 g/ha, scale 0 to 10
[19] = Postemergence, Rate 500 g/ha, scale of 0 to 10 where 0 is no effect and 10 is complete control
[20] = Preemergence, Rate 62 g/ha, scale 0 to 10 (0 no effect, 10 complete control)
[21] = Preemergence, Rate 125 g/ha, scale of 0 to 10 where 0 is no effect and 10 is complete control
[22] = Preemergence, Rate 250 g/ha, scale 0 to 10, 0 is no effect, 10 is complete control
[23] = Preemergence, Rate 500 g/ha, scale 0 to 10, 0 is no effect, 10 is complete control
[24] = Rate 125 g/ha, Postemergence, scale 0 to 10, 0 is no effect, 10 is complete control
[25] = Postemergence block (flood test species), Rate 250 g/ha, scale 0 to 10
[26] = Postemergence section (flood test species), Rate 500 g/ha, scale of 0 to 10 where 0 is no effect and 10 is complete control
[27] = Rate 125 g/ha, Postemergence section (flood test species), scale 0 to 10, 0 is no effect, 10 is complete control
[28] = Rate 62 g/ha, Postemergence, scale of 0 to 10 where 0 is no effect and 10 is complete control
[29] = Rate 62 g/ha, Postemergence (flood test species), scale of 0 to 10 where 0 is no effect and 10 is complete control

`CC(C)N(C(=O)n1oc(=O)n(CC#N)c1=O)c1ccccc1` [Compound 434] was tested. Which “Soybean plant response rating” value [1, 18] did it give?
The value was 1.

What about the “Soybean plant response rating” value [1, 19] of the same molecule?
The value was 1.

And the “Plant response rating, Soybean” value [1, 20]?
The value was 0.

What about the “Plant response rating, Soybean” value [1, 21] of the same molecule?
The value was 0.

What about the “Soybean plant response rating” value [1, 22] of the same molecule?
Its value is 0.

And the “Soybean plant response rating” value [1, 23]?
Its value is 0.

What about the “Soybean plant response rating” value [1, 24] of the same molecule?
Its value is 0.

What about the “Rice plant response rating” value [2, 25] of the same molecule?
The value was 0.

And the “Rice plant response rating” value [2, 26]?
Its value is 0.

And the “Rice plant response rating” value [2, 27]?
Its value is 0.

And the “B. signalgrass plant response rating” value ([3]; Postemergence, Rate 250 g/ha, scale 0 to 10, 0 no effect, 10 complete control)?
Its value is 0.

What about the “B. signalgrass plant response rating” value [3, 19] of the same molecule?
Its value is 0.

And the “Plant response rating, B. signalgrass” value [3, 20]?
The value was 0.

What about the “Plant response rating, B. signalgrass” value [3, 21] of the same molecule?
Its value is 0.

What about the “B. signalgrass plant response rating” value [3, 22] of the same molecule?
The value was 0.

What about the “B. signalgrass plant response rating” value [3, 23] of the same molecule?
Its value is 0.

What about the “B. signalgrass plant response rating” value [3, 28] of the same molecule?
The value was 0.

What about the “B. signalgrass plant response rating” value [3, 24] of the same molecule?
The value was 0.

And the “Velvetleaf plant response rating” value [4, 18]?
The value was 0.

What about the “Velvetleaf plant response rating” value [4, 19] of the same molecule?
The value was 0.

And the “Plant response rating, Velvetleaf” value [4, 20]?
Its value is 0.

And the “Plant response rating, Velvetleaf” value [4, 21]?
The value was 0.

What about the “Velvetleaf plant response rating” value [4, 22] of the same molecule?
The value was 0.

What about the “Velvetleaf plant response rating” value [4, 23] of the same molecule?
The value was 0.

And the “Velvetleaf plant response rating” value [4, 24]?
Its value is 0.

What about the “Cocklebur plant response rating” value [5, 18] of the same molecule?
The value was 0.

What about the “Cocklebur plant response rating” value [5, 19] of the same molecule?
The value was 0.

And the “Plant response rating, Cocklebur” value [5, 20]?
Its value is 0.

What about the “Plant response rating, Cocklebur” value [5, 21] of the same molecule?
Its value is 0.

And the “Cocklebur plant response rating” value [5, 22]?
Its value is 0.

What about the “Cocklebur plant response rating” value [5, 23] of the same molecule?
Its value is 0.

What about the “Cocklebur plant response rating” value [5, 28] of the same molecule?
The value was 0.

And the “Cocklebur plant response rating” value [5, 24]?
The value was 0.

What about the “Giant foxtail plant response rating” value [6, 18] of the same molecule?
Its value is 1.

What about the “Giant foxtail plant response rating” value [6, 19] of the same molecule?
The value was 4.

And the “Plant response rating, Giant foxtail” value [6, 20]?
The value was 0.

What about the “Plant response rating, Giant foxtail” value [6, 21] of the same molecule?
Its value is 0.

What about the “Giant foxtail plant response rating” value [6, 22] of the same molecule?
The value was 0.

And the “Giant foxtail plant response rating” value [6, 23]?
The value was 2.

And the “Giant foxtail plant response rating” value [6, 28]?
Its value is 0.

And the “Giant foxtail plant response rating” value [6, 24]?
The value was 0.

What about the “S. Flatsedge plant response rating” value [7, 25] of the same molecule?
The value was 0.

What about the “S. Flatsedge plant response rating” value [7, 26] of the same molecule?
Its value is 0.

What about the “S. Flatsedge plant response rating” value [7, 27] of the same molecule?
Its value is 0.

What about the “Nutsedge plant response rating” value [8, 18] of the same molecule?
Its value is 0.

And the “Nutsedge plant response rating” value [8, 19]?
Its value is 0.

What about the “Plant response rating, Nutsedge” value [8, 20] of the same molecule?
The value was 0.

And the “Plant response rating, Nutsedge” value [8, 21]?
Its value is 0.

And the “Nutsedge plant response rating” value [8, 22]?
Its value is 0.

What about the “Nutsedge plant response rating” value [8, 23] of the same molecule?
The value was 0.

What about the “Nutsedge plant response rating” value [8, 24] of the same molecule?
Its value is 0.

And the “Wheat plant response rating” value [9, 18]?
The value was 0.

And the “Wheat plant response rating” value [9, 19]?
The value was 0.

What about the “Plant response rating, Wheat” value [9, 20] of the same molecule?
Its value is 0.

What about the “Plant response rating, Wheat” value [9, 21] of the same molecule?
The value was 0.

What about the “Wheat plant response rating” value [9, 22] of the same molecule?
Its value is 0.

What about the “Wheat plant response rating” value [9, 23] of the same molecule?
The value was 0.

What about the “Wheat plant response rating” value [9, 24] of the same molecule?
The value was 0.

What about the “Sugarbeets plant response rating” value [10, 18] of the same molecule?
Its value is 0.

What about the “Sugarbeets plant response rating” value [10, 19] of the same molecule?
Its value is 0.

And the “Plant response rating, Sugarbeets” value [10, 20]?
Its value is 0.

What about the “Plant response rating, Sugarbeets” value [10, 21] of the same molecule?
The value was 0.

And the “Sugarbeets plant response rating” value [10, 22]?
Its value is 0.

And the “Sugarbeets plant response rating” value [10, 23]?
The value was 0.

What about the “Sugarbeets plant response rating” value [10, 24] of the same molecule?
The value was 0.

And the “Crabgrass plant response rating” value [11, 18]?
The value was 1.

And the “Crabgrass plant response rating” value [11, 19]?
The value was 4.

And the “Plant response rating, Crabgrass” value [11, 20]?
The value was 0.

And the “Plant response rating, Crabgrass” value [11, 21]?
Its value is 0.

And the “Crabgrass plant response rating” value [11, 22]?
Its value is 0.

And the “Crabgrass plant response rating” value [11, 23]?
The value was 1.

What about the “Crabgrass plant response rating” value [11, 28] of the same molecule?
Its value is 0.

What about the “Crabgrass plant response rating” value [11, 24] of the same molecule?
Its value is 0.

What about the “Blackgrass plant response rating” value [12, 18] of the same molecule?
The value was 0.

What about the “Blackgrass plant response rating” value [12, 19] of the same molecule?
Its value is 0.

And the “Plant response rating, Blackgrass” value [12, 20]?
The value was 0.

What about the “Plant response rating, Blackgrass” value [12, 21] of the same molecule?
Its value is 0.

And the “Blackgrass plant response rating” value [12, 22]?
The value was 0.

And the “Blackgrass plant response rating” value [12, 23]?
The value was 0.

What about the “Blackgrass plant response rating” value [12, 28] of the same molecule?
The value was 0.

And the “Blackgrass plant response rating” value [12, 24]?
Its value is 0.

What about the “Barnyardgrass plant response rating” value [13, 25] of the same molecule?
The value was 0.

And the “Barnyardgrass plant response rating” value [13, 26]?
Its value is 0.

What about the “Barnyardgrass plant response rating” value [13, 29] of the same molecule?
The value was 0.

What about the “Barnyardgrass plant response rating” value [13, 27] of the same molecule?
Its value is 0.

What about the “Rape plant response rating” value [14, 18] of the same molecule?
The value was 0.

And the “Rape plant response rating” value [14, 19]?
Its value is 0.

What about the “Plant response rating, Rape” value [14, 20] of the same molecule?
Its value is 0.

And the “Plant response rating, Rape” value [14, 21]?
The value was 0.

What about the “Rape plant response rating” value [14, 22] of the same molecule?
The value was 0.

What about the “Rape plant response rating” value [14, 23] of the same molecule?
The value was 0.

What about the “Rape plant response rating” value [14, 24] of the same molecule?
Its value is 0.

What about the “Ducksalad plant response rating” value [15, 25] of the same molecule?
The value was 0.

What about the “Ducksalad plant response rating” value [15, 26] of the same molecule?
Its value is 0.

And the “Ducksalad plant response rating” value [15, 29]?
The value was 0.

What about the “Ducksalad plant response rating” value [15, 27] of the same molecule?
The value was 0.

And the “Corn plant response rating” value [16, 18]?
The value was 0.

What about the “Corn plant response rating” value [16, 19] of the same molecule?
Its value is 0.

What about the “Plant response rating, Corn” value [16, 20] of the same molecule?
Its value is 0.

What about the “Plant response rating, Corn” value [16, 21] of the same molecule?
The value was 0.

And the “Corn plant response rating” value [16, 22]?
Its value is 0.

What about the “Corn plant response rating” value [16, 23] of the same molecule?
Its value is 0.

And the “Corn plant response rating” value [16, 28]?
The value was 0.

And the “Corn plant response rating” value [16, 24]?
Its value is 0.

And the “Bedstraw plant response rating” value ([17]; Rate 62 g/ha, scale of 0 to 10 where 0 is no effect and 10 is complete control)?
Its value is 0.

And the “Bedstraw plant response rating” value ([17]; Rate 125 g/ha, scale 0 to 10, 0 is no effect, 10 is complete control)?
The value was 0.
